In BigSolDB 2.1:

CNC[C@H](O)c1cccc(O)c1.Cl
solubility (mole fraction)
Settings | in 2-butoxyethanol | in 2-ethoxyethanol | in 2-methoxyethanol | in 2-propoxyethanol | in DMF | in NMP | in ethanol | in isopropanol | in methanol | in n-propanol
278.15 K | 0.00496 | 0.0254 | 0.114 | 0.00782 | 0.185 | 0.154 | 0.0138 | 0.00201 | 0.0715 | 0.00469
283.15 K | 0.00611 | 0.0305 | 0.122 | 0.01 | 0.198 | 0.161 | 0.0168 | 0.00251 | 0.0811 | 0.00586
288.15 K | 0.00811 | 0.0386 | 0.131 | 0.0132 | 0.21 | 0.169 | 0.0195 | 0.00335 | 0.09 | 0.00728
293.15 K | 0.0102 | 0.0465 | 0.14 | 0.0162 | 0.222 | 0.178 | 0.0233 | 0.00409 | 0.101 | 0.00905
298.15 K | 0.0126 | 0.0553 | 0.147 | 0.0195 | 0.236 | 0.186 | 0.0287 | 0.00492 | 0.111 | 0.0107
303.15 K | 0.016 | 0.0654 | 0.161 | 0.0244 | 0.251 | 0.198 | 0.034 | 0.0062 | 0.123 | 0.0133
308.15 K | 0.0195 | 0.0761 | 0.171 | 0.0304 | 0.265 | 0.208 | 0.0404 | 0.00768 | 0.136 | 0.0163
313.15 K | 0.0248 | 0.0903 | 0.183 | 0.0376 | 0.284 | 0.22 | 0.047 | 0.00931 | 0.15 | 0.0196
318.15 K | 0.0306 | 0.106 | 0.195 | 0.0462 | 0.299 | 0.232 | 0.0554 | 0.0113 | 0.165 | 0.0236
323.15 K | 0.0372 | 0.122 | 0.21 | 0.0566 | 0.315 | 0.246 | 0.0654 | 0.0138 | 0.182 | 0.0282
